Literature values in patent publication US20150209399A1, “Methods For Enhacement Of Dehydroepiandrosterone Using Green Coffee Bean Extract” (Applied Food Sciences, Inc., priority 2013, published 2015).

What was measured:
[1] = test system: human coxsackievirus B4 strain
[2] = 300 mg DHEA per day orally, second week; baseline 316.2
platelet aggregation = details: four of the five test subjects who received DHEA; second week
[3] = human, in vivo

Row | Compound | mortality of infected animals treated with DHEA ([1]; 100,000 plaque forming units/animal, about 90% mortality in infected animals) [%] | elevation in the number of antibody forming cells ([1]; within the animal) [%] | mean serum DHEA-S level, DHEA group [2] [µg/dL] | rate of platelet aggregation (platelet aggregation) | half-life [3]
1 | C[C@]12CCC(O)CC1=CC[C@@H]1[C@@H]2CC[C@]2(C)C(=O)CC[C@@H]12 (some centres unmarked) [DHEA, 3-hydroxyandrost-5-en-17-one] | 37 | 80 | 1451.9 ± 56.7 | slower rate of aggregation | –
2 | chlorogenic acids | – | – | – | – | less than 12 hours
